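Following 48 hours of exposure in 96-well plates, responses at five concentrations were used to interpolate endpoints linearly. TGI is the concentration that stops growth completely.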
Experiments:
Experiment in all cases: DTP human tumour cell line panel, 48 h
[1] = tested on: DU-145 prostate
[2] = tested on: HCC-2998 colon
[3] = tested on: MCF7 breast
[4] = tested on: MDA-MB-435
[5] = tested on: NCI-H522 lung
[6] = tested on: NCI/ADR-RES ovarian
[7] = tested on: SF-268 CNS
[8] = tested on: SF-295 CNS
[9] = tested on: SK-MEL-2 melanoma
[10] = tested on: SNB-19 CNS

Row | Structure (SMILES) | TGI [1] [µM] | TGI [2] [µM] | TGI [3] [µM] | TGI [4] [µM] | TGI [5] [µM] | TGI [6] [µM] | TGI [7] [µM] | TGI [8] [µM] | TGI [9] [µM] | TGI [10] [µM]
1 | N#Cc1ccnc(C(=O)N2CCCC2C(=O)O)c1 (stereo not given) | > 100 | > 100 | > 100 | > 100 | > 100 | > 100 | > 100 | > 100 | > 100 | > 100
2 | CO[C@H](C)[C@](O)(C(=O)OCC1=CCN2CC[C@@H](O)[C@H]12)C(C)C | > 100 | > 100 | > 100 | > 100 | > 100 | > 100 | > 100 | > 100 | > 100 | > 100
3 | Brc1ccc2[nH]cc(-c3csc(-c4c[nH]c5ccc(Br)cc45)n3)c2c1 | 6.89 | 3.26 | 12.9 | 5.79 | 3.39 | 6.29 | 6.12 | 6.32 | 3.81 | 7.61
4 | O=C(O)C12C3C4(C(=O)O)C1C1(C(=O)O)C2C3(C(=O)O)C41 (stereo not given) | > 100 | > 100 | > 100 | > 100 | > 100 | > 100 | > 100 | > 100 | > 100 | > 100
5 | Cn1c2ccccc2c2c3c(=O)[nH][nH]c(=O)c3c3c4ccccc4n(C)c3c21 | > 100 | > 100 | > 100 | > 100 | > 100 | > 100 | > 100 | > 100 | > 100 | > 100
6 | COc1ccc(C(=C2C(=O)OC(=O)C2=C(C)C)c2ccc(OC)cc2)cc1 | > 100 | > 100 | > 100 | > 100 | 55.7 | > 100 | > 100 | > 100 | > 100 | > 100
7 | COC(=O)c1ccc2cc(O)ccc2c1 | > 100 | > 100 | > 100 | > 100 | > 100 | > 100 | > 100 | > 100 | > 100 | > 100
8 | O=C1c2c(Br)sc(Br)c2[C@H]2OC(=S)N[C@@H]12 | 26.9 | 22.4 | 23.2 | 8.65 | 3.4 | 31.6 | 12 | 30.1 | 29 | 30
9 | O=c1[nH]nc(-c2ccc([N+](=O)[O-])cc2)[nH]1 | > 100 | > 100 | > 100 | > 100 | > 100 | > 100 | > 100 | > 100 | > 100 | > 100
10 | O=C1CCC(CCc2nc3ccccc3[nH]2)(c2ccccc2)C(=O)N1 (stereo not given) | > 100 | > 100 | > 100 | > 100 | > 100 | > 100 | > 100 | > 100 | > 100 | > 100
11 | COC(=O)Cc1c2n(c3ccccc13)C(=O)N1c3ccccc3C(CC(=O)OC)C21 (stereo not given) | > 100 | > 100 | > 100 | > 100 | > 100 | > 100 | > 100 | 68.2 | > 100 | 49.8
12 | CCCCCc1cc(CCCC)sc1-c1ccco1 | > 100 | > 100 | > 100 | > 100 | > 100 | > 100 | > 100 | > 100 | > 100 | > 100
13 | COc1ccc2c(c1)CCC(CN1CCN(CCOC(c3ccccc3)c3ccccc3)CC1)C2O (stereo not given) | 38.9 | 16.1 | 37.5 | 32 | 31 | 27.4 | 31.5 | 36 | 33 | 33.6
14 | C=CCN(c1cc(OC)c2[nH]c(C(=O)O)c(C)c2c1[N+](=O)[O-])S(C)(=O)=O | > 100 | > 100 | > 100 | > 100 | > 100 | > 100 | > 100 | > 100 | > 100 | > 100
15 | O=C1CCCC2=C1CC1=C(CCCC1=O)N2c1ccc(-c2ccccc2)cc1 | > 100 | > 100 | > 100 | > 100 | > 100 | > 100 | > 100 | > 100 | > 100 | > 100
16 | CC(C)(C)[Si](C)(C)OC1CCOC1(O)c1ccccn1 (stereo not given) | > 100 | > 100 | > 100 | > 100 | > 100 | > 100 | > 100 | > 100 | > 100 | > 100
17 | CCC1(c2ccc(OC)c(OC)c2)CCN2C(=O)C(O)CC21 (stereo not given) | > 100 | > 100 | > 100 | > 100 | > 100 | > 100 | > 100 | > 100 | > 100 | > 100
